Measurements reported in publication PMC9228592, “Dichloroacetyl Amides of 3,5-Bis(benzylidene)-4-piperidones Displaying Greater Toxicity to Neoplasms than to Non-Malignant Cells” (Medicines, 2022).
*1 amine or outer side, *2 acyl side, *3 side chain or, on linkers, in order; H or OH if unused. Where a SMILES comes first, the peptide text is derived from it. Bridges are numbered along the chain shown (N, C = ends). Roman numbers before positions name the chains, in order. [ ]: non-standard residue; d: D form. Actinocin(9to1) = Cc1c2oc3c(C)ccc(C(=O)[*:1])c3nc-2c(C(=O)[*:2])c(N)c1=O; NMeV = CN[C@H](C(=O)O)C(C)C; Sar = CNCC(=O)O

Legend:
Type in all cases: cell-based, human
[1] = system: Ca9-22 squamous cell carcinoma cells; experiment: Cytotoxicity (MTT, 48 h) against Ca9-22 cells; details: for CC50: Homo sapiens, Ca9-22, 48 h, MTT, mean ± S.D. of triplicate; for SI (Ca9-22): average CC50 towards HGF, HPLF, HPC divided by CC50 against Ca9-22
Source text: (§1) The target cells used in our study were human oral squamous cell carcinoma cell lines Ca9-22 (purchased from RIKEN Cell Bank, Tukuba, RCB-1976), HSC-2 (RCB1945), HSC-3 (RCB1975), HSC-4 (RCB1902), and three human normal oral cells, gingival fibroblast (HGF), periodontal ligament fibroblast (HPLF), and pulp cells (HPC) [established from the first premolar extracted tooth in the lower jaw (because of dysfunctional position or orthodontic treatment) and periodontal tissues of a child, according to the guideline of the Institutional Board of Meikai University Ethics Committee (No. A0808)], after obtaining informed consent from the patients. These cells were incubated for 48 h with the indicated concentrations of test samples or reference compounds sodium dichloroacetate (purchased from Sigma-Aldrich Chemical Company, Saint Louis, MO, USA), 5-fluorouracil (5-FU) from Kyowa (Tokyo, Japan), and doxorubicin (DXR) (St. Louis, MO, USA) and vehicle (DMSO) (0.008, 0.016, 0.031, 0.063, 0.125, 0.25, 0.5, and 1%) in Dulbecco’s Modified Eagle Medium (DMEM) media, which was supplemented with 10% heat-inactivated fetal bovine serum. Cell viability was determined by the MTT method. Cytotoxicity caused by the vehicle (DMSO) was subtracted.
(§2) SI was calculated by dividing the average CC50 value (concentration of the compound to kill 50% of the cells) of the compound towards HGF, HPLF, and HPC cells by the CC50 value of the compound against a specific neoplastic cell line.

[2] = system: HSC-2 squamous cell carcinoma cells; experiment: Cytotoxicity (MTT, 48 h) against HSC-2 cells; details: for CC50: Homo sapiens, HSC-2; for SI (HSC-2): average CC50 towards HGF, HPLF, HPC divided by CC50 against HSC-2
Source text: as §1, §2

[3] = system: HSC-3 squamous cell carcinoma cells; experiment: Cytotoxicity (MTT, 48 h) against HSC-3 cells; details: for CC50: Homo sapiens, HSC-3, 48 h, MTT, mean ± S.D. of triplicate; for SI (HSC-3): average CC50 towards HGF, HPLF, HPC divided by CC50 against HSC-3
Source text: as §1, §2

[4] = system: HSC-4 squamous cell carcinoma cells; experiment: Cytotoxicity (MTT, 48 h) against HSC-4 cells; details: for CC50: Homo sapiens, HSC-4, 48 h, MTT, mean ± S.D. of triplicate; for SI (HSC-4): average CC50 towards HGF, HPLF, HPC divided by CC50 against HSC-4
Source text: as §1, §2

[5] = Cytotoxicity (MTT, 48 h) against HGF non-malignant cells; details: human, normal gingival fibroblasts (HGF), mean ± S.D. of triplicate
Source text: as §1

[6] = Cytotoxicity (MTT, 48 h) against HPLF non-malignant cells; details: human, normal periodontal ligament fibroblasts (HPLF), mean ± S.D. of triplicate
Source text: as §1

[7] = Cytotoxicity (MTT, 48 h) against HPC non-malignant cells; details: female, human, normal pulp cells (HPC), mean ± S.D. of triplicate
Source text: as §1

[8] = system: Ca9-22, HSC-2, HSC-3, and HSC-4 cells; experiment: Average cytotoxicity, selectivity and PSE over the four carcinoma lines; details: for CC50: Homo sapiens, average over Ca9-22, HSC-2, HSC-3, HSC-4; for Average SI: average of SI over Ca9-22, HSC-2, HSC-3, HSC-4
Source text: as §1, §2
PSE reflects both the potencies and differences in cytotoxicity to neoplasms and non-malignant cells. This value was the product of the reciprocal of the average CC50 value of the compounds towards Ca9-22, HSC-2, HSC-3, and HSC-4 cells and the average SI value × 100.

[9] = Average cytotoxicity over the three non-malignant cells; details: female, human, normal oral cells HGF, HPLF and HPC (average over the three)
Source text: as §1

Ca9-22 cells [10] = experiment: Mitotic accumulation in Ca9-22 cells
Description: Another way in which cytotoxicity could occur is by initiating mitosis. In order to examine this possibility, different concentrations of the potent cytotoxin 1k that were 3, 10, and 30 times the CC50 value were incubated with Ca9-22 cells for 20 h. […] In order to explore the possibility that the dichloroacetyl group contributed to this effect, concentrations of 2a that were 3, 10, and 30 times the CC50 concentration were incubated with Ca9-22 cells for 20 h. […] The question arose as to the way in which this observation could be useful in anticancer drug design. Cells which are stimulated to divide are likely more sensitive to a subsequent attack of a cytotoxin when cells are in a resting stage, for example.

PARP = PARP cleavage in Ca9-22 cells (Western blot)
Description: (§3) The effect of 20 h incubation of different concentrations of 1k and 2a with Ca9-22 cells on the cleavage of PARP and procaspase 3 cleavage was undertaken using a reported procedure. In brief, the control and treated Ca9-22 cells at near confluent phase were collected and lysed, and protein samples of cell lysates (15 µg) were applied to SDS-polyacrylamide gel electrophoresis. After electrophoresis, the separated proteins were transferred onto a PVDF (polyvinylidene fluoride) filter. The blots were treated in skim milk and then probed for 120 min with a primary antibody cocktail (1:250) from an Apoptosis Western Blot Cocktail kit (purchased from Abcam, Cambridge, UK). The blots were washed and probed with horseradish peroxidase conjugated secondary antibody cocktail (1:100). Immunoreactivities were determined using Amer-sham ECL Select. Images were acquired using ChemiDoc MP System and Image Lab 4.1 software (Bio-Rad Laboratories, Hercules, CA, USA).

procaspase 3 = experiment: Procaspase 3 cleavage in Ca9-22 cells (Western blot); details: for cleavage of procaspase to caspase 3: 20 h
Description: as §3

Ca9-22 cells [11] = experiment: Cell cycle assay in Ca9-22 cells; details: 20 h; for G2M cell population: p < 0.05; for effect on the cell cycle: 0.1, 0.2, and 0.4 µM
Description: The evaluation of varying quantities of 1d,e,k on the cell cycle in Ca9-22 cells was undertaken by a literature method. In brief, Ca9-22 cells were treated for 20 h without (control) or with the indicated concentrations of the test samples. To neglect the cytotoxicity effect of DMSO, all samples contained 0.1% DMSO. Cells (approximately 10^6 cells) were harvested, fixed for 1 h on ice with 1% paraformaldehyde, washed twice by phosphate-buffered saline, treated for 30 min at 37 °C with 0.2 mg/mL RNase A (ribonuclease A), stained for 15 min at room temperature with 0.01% propidium iodide in the presence of 0.01% NP-40 (nonyl phenoxypolyethoxyethanol) to prevent cell aggregation, filtered through Falcon® cell strainers (pore size: 40 µm) (Corning, NY, USA), subjected to cell sorting (SH800 Series; SONY Imaging Products and Solutions Inc., Kanagawa, Japan), and then analyzed with Cell Sorter Software version 2.1.2. (SONY Imaging Products and Solutions Inc., Kanagawa, Japan).

[12] = 48 h, MTT, mean ± S.D. of triplicate

SMILES	CC50 [1]	CC50 [2, 12]	SI (HSC-2) [2]	CC50 [3]	SI (HSC-3) [3]	CC50 [4]	SI (HSC-4) [4]	CC50 at 48 h [5]	CC50 at 48 h [6]	CC50 at 48 h [7]	CC50 [8]	Average SI [8]	CC50 at 48 h [9]	G2M cell population (Ca9-22 cells [11]; 0.8 µM)	effect on the cell cycle (Ca9-22 cells [11])	SI (Ca9-22) [1]	further results
O=C1C(=Cc2ccccc2)CNCC1=Cc1ccccc1 [Compound 2a, 3,5-bis(benzylidene)-4-piperidone]	190 ± 30 nM	390 ± 10 nM	30.0	800 ± 70 nM	14.6	790 ± 220 nM	14.8	21700 ± 6000 nM	9100 ± 2870 nM	4300 ± 720 nM	540 nM	30.3	11700 nM	–	–	–	mitotic accumulation (Ca9-22 cells [10]; 2 µM and 6 µM, 20 h): mitotic accumulation occurred; PARP cleavage (PARP; 2 and 6 µM, 20 h): PARP was cleaved; cleavage of procaspase to caspase 3 (procaspase 3; 2 and 6 µM): cleavage of procaspase to caspase 3 was observed
O=C1/C(=C/c2ccc([N+](=O)[O-])cc2)CN(C(=O)C(Cl)Cl)C/C1=C\c1ccc([N+](=O)[O-])cc1 [Compound 1k]	20 ± 10 nM	80 ± 10 nM	18.0	100 ± 30 nM	14.4	180 ± 40 nM	8.00	3010 ± 330 nM	760 ± 130 nM	560 ± 80 nM	100 nM	28.1	1440 nM	most prominent increase	little effects	–	HSC-2 CC50 [2, 12]: double-digit nanomolar; average potency figure relative to 5-FU (times lower) ([8]; average CC50 compared with 5-FU): 310 times; subG1 population (Ca9-22 cells [11]; 0.8 µM): slight increase; percentage of the cells undergoing mitosis (Ca9-22 cells [10]; two highest concentrations of 3, 10, 30 times the CC50 value, 20 h): increased significantly; PARP cleavage (PARP; 0.2 and 0.6 µM, 20 h): PARP was cleaved; cleavage of procaspase to caspase 3 (procaspase 3; 0.2 and 0.6 µM): cleavage of procaspase to caspase 3 was observed
O=C1/C(=C/c2ccc(Cl)cc2)CN(C(=O)C(Cl)Cl)C/C1=C\c1ccc(Cl)cc1 [Compound 1d]	50 nM	100 ± 10 nM	14.4	190 ± 20 nM	7.58	180 ± 40 nM	8.00	2130 ± 120 nM	1290 ± 140 nM	900 ± 20 nM	130 nM	14.7	1440 nM	most prominent increase	little effects	28.8	–
COc1cccc2c1C(=O)c1c(O)c3c(c(O)c1C2=O)C[C@@](O)(C(=O)CO)C[C@@H]3O[C@H]1C[C@H](N)[C@H](O)[C@H](C)O1 [DXR, doxorubicin, reference compound]	430 ± 40 nM	200 ± 20 nM	>47.8	260 ± 210 nM	>36.7	120 nM	>79.6	> 10000 nM	> 10000 nM	> 8650 nM	250 nM	>46.6	> 9550 nM	–	–	>22.2	–
Cc1c2oc3c(C)ccc(C(=O)N[C@@H]4C(=O)N[C@H](C(C)C)C(=O)N5CCC[C@H]5C(=O)N(C)CC(=O)N(C)[C@@H](C(C)C)C(=O)O[C@@H]4C)c3nc-2c(C(=O)N[C@@H]2C(=O)N[C@H](C(C)C)C(=O)N3CCC[C@H]3C(=O)N(C)CC(=O)N(C)[C@@H](C(C)C)C(=O)O[C@@H]2C)c(N)c1=O [actinomycin D, reference compound] (I: T[dV]P[Sar][NMeV] / II: T[dV]P[Sar][NMeV]; ester I:1-I:C, II:1-II:C; linker I:N-II:N via Actinocin(9to1))	–	–	–	–	–	–	–	–	–	–	–	–	–	–	–	–	mitosis (Ca9-22 cells [10]; 1 µM): Increased mitosis; PARP cleavage (PARP; 1 µM): Cleavage; procaspase 3 cleavage (procaspase 3; 1 µM): Cleavage
